Data taken from patent US20050002943A1, “Amp-kinase agonists or adenosine pro-drugs as immuno-stimulating agents” (priority 2001, published 2005).
“Also recorded” adds a separate entry of the source. One block for each molecule: values may come before it.

Legend:
[1] = tested on: BALB/c mice; assay: Primary and secondary antibody response to Ars-KLH with oligomycin, serum ELISA (Example 11); assay type: in vivo; details: oligomycin 10 μg i.p. with Ars-KLH 50 μg, vs antigen alone; primary (day 21) and secondary (14 days after boost)
Procedure: BALB/C mice were injected intraperitoneally with Ars-KLH (50 μg) mixed with saline, AICA-riboside (3 mg) or oligomycin (10 μg). 21 days after immunization, mice were bled and serum levels of Ars-specific antibodies (primary response) were determined by ELISA according to standard procedure using isotype-specific rat mAb. […] On day 22, all mice received a second injection of Ars-KLH (50 μg) intrapertioneally. Mice were bled 14 days after the antigen boost and serum levels of Ars-KLH-specific antibodies (secondary response) were determined by ELISA.

[2] = tested on: BALB/c mice; assay: Primary antibody response to Ars-KLH with AICAR or 6-MPR, serum ELISA (Example 10); assay type: in vivo; details: 3 mg i.p. with Ars-KLH 100 μg; for antigen-specific IgG antibodies: vs antigen without adjuvant, day 19
Procedure: BALB/c micereceived an intraperitoneal injection of Ars-KLH (100 μg), Ars-KLH+AICAR (3 mg) or Ars-KLH+6-MPR (3 mg). 19 days after Immunization, mice were bled and serum levels of antigen specific antibodies were determined by ELISA according to standard procedure using isotype-specific rat Mab.

[3] = tested on: BALB/c mice; assay: Primary, secondary and day 120 Ars-specific antibody response to Ars-KLH, serum ELISA (Examples 2 and 3); assay type: in vivo
Procedure: Three groups of BALB/c mice received an intraperitoneal injection of Ars-KLH (100 μg), Ars-KLH (100 μg)+AICA-riboside (10 mg) or Ars-KLH (100 μg)+Alum (50 μl). 21 days after immunization, mice were bled and serum levels of antigen (Ars)-specific antibodies were determined by ELISA as previously described (primary response). On day 22, all mice received a second injection (boost) of Ars-KLH (100 μg) i.p. Mice were bled 8 days after the antigen boost and serum levels of Ars-specific antibodies were determined by ELISA (secondary response). The results are illustrated in FIG. 2.
Mice immunized according to the protocol described in example 2 were bled 120 days after the first encounter with the antigen (in the presence or absence of adjuvant) and serum levels of antigen specific antibodies were determined by ELISA as described previously (secondary response, day 120).

[4] = tested on: humans; details: all dose levels (10 to 100 mg/kg); cited from earlier work
[5] = tested on: BALB/c mice; assay: Ars-KLH antibody response over a range of AICA-riboside doses (Example 5); assay type: in vivo; details: AICA-riboside 3 to 0.3 mg i.p. with Ars-KLH 100 μg; primary and secondary response
Procedure: BALB/c mice received an intraperitoneal injection of Ars-KLH (100 μg) or Ars-KLH (100 μg)+AICA-riboside at concentrations ranging from 3 to 0.3 mg. 21 days after immunization, mice were bled and serum levels of antigen (Ars)-specific antibodies were determined by ELISA according to standard procedure using isotype-specific reagents (primary response). On day 22, all mice received a boost of Ars-KLH (50 μg) intraperitoneally. Mice were bled 14 days after the antigen boost and serum levels of Ars-specific antibodies were determined by ELISA as described previously (secondary response). The results are illustrated in FIG. 5.

[6] = tested on: BALB/c mice; assay: Size of draining lymph nodes after footpad injection (Example 8); assay type: in vivo; details: rear footpad injection with NP-KLH 25 μg; AICA-riboside 2.5 mg or Alum 12.5 μg; 8 days
Procedure: BALB/c mice were injected with NP-KLH (25 μg), NP-KLH (25 μg)+AICA-riboside (2.5 mg) or NP-KLH (25 μg)+Alum (12.5 μg) in the two rear footpads. 8 days after injection, mice were sacrificed and their posterior lymph nodes were collected and immediately analyzed for size.

[7] = tested on: BALB/c mice; assay: Local inflammatory response at injection site, GR-1 immunohistochemistry (Example 9); assay type: in vivo; details: rear footpad injection; AICA-riboside 2.5 mg or alum 12.5 μg; 8 or 24 hours
Procedure: BALB/c mice were injected with saline (50 μl PBS), AICA-boside (2.5 mg) or alum (12.5 μg) in the two rear footpads. 8 or 24 hours after treatment mice were sacrificed, and thin sections of the tissues surrounding the injection site (marked by a circle) were analyzed by immunohistochemistry. Inflammatory cells (mostly granulocytes and monocytes) were identified using an antibody directed to the murine GR-1 molecule.

[8] = tested on: BALB/c mice; assay: NP-KLH antibody response in anti-CD4 treated mice (Example 7); assay type: in vivo; details: anti-CD4 (GK1.5) treated mice; NP-KLH 100 μg + AICA-riboside 10 mg i.p.; day 10
Procedure: BALB/c mice, were treated or not with anti-CD4 antibodies (two intraperitoneal injections of 200 μl of the depleting rat anti-mouse anti-CD4 antibody, clone GK1.5, on days 0 and 5). On day 2 mice were injected intraperitoneally with NP-KLH (100 μg) or NP-KLH (100 μg)+AICA-riboside (10 mg). 10 days after immunization, mice were bled and serum levels of NP-specific antibodies were determined by ELISA according to standard procedures using isotype specific reagents.

[9] = tested on: murine lymphocytes; assay: In vitro response of murine lymphocytes, cytokine secretion; assay type: cell-based
Source text: (§1) Although the precise mechanism(s) by which AICA-riboside augments antibody responses in vivo is presently unknown, some points are noteworthy in light of the present invention. […] A qualitative change of the humoral response is also observed, as immunoglobulins of the IgG isotype (generally detected only during the secondary response) are already detected during the primary response in animals treated with antigen/AICA-riboside formulations. […] The immuno-potentiating effect of AICA-riboside in combination with said antigen is as good when the compounds are administered mixed together (co-administered) as when administered separately or sequentially. […] The use of this agent therefore probably precludes local pain after injection.

[10] = tested on: BALB/c mice; assay: Ars-KLH antibody response, timing of AICA-riboside injection relative to antigen (Example 6); assay type: in vivo; details: AICA-riboside 10 mg i.p. at d-1, d0 or d+1, separate site from Ars-KLH 100 μg
Procedure: BALB/c mice received an intraperitoneal injection of AICA-riboside (10 mg) one day before (d-1), the same day (d0) or the day after (d+1) the intraperitoneal injection (in a separate site) of Ars-KLH (100 μg). A fourth group (n.t.) received an intraperitoneal injection of phosphate buffer solution the day of the antigen administration. 20 days after immunization, mice were bled and serum levels of Ars-specific antibodies were determined by ELISA according to standard procedures using isotype-specific reagents (primary response). On day 21, all mice received a boost of Ars-KLH (50 μg) intraperitoneally. Mice were bled 14 days after the antigen boost and serum levels of Ars-specific antibodies were determined by ELISA as described previously (secondary response).

[11] = tested on: BALB/c mice; assay: Antigen (NP)-specific antibody response to NP-KLH, serum ELISA (Example 1); assay type: in vivo
Procedure: BALB/c mice were injected intraperitoneally with 200 μl of saline, aqueous solution (phosphate buffer solution), or with 200 μl of phosphate buffer solution containing AICA-riboside (10 mg), NP-KLH (100 μg) or NP-KLH (100 μg)+AICA-riboside (10 mg). Height days after immunization, mice were bled and serum levels of antigen (NP)-specific antibodies were determined by ELISA according to standard procedure using isotype-specific reagents.

[12] = tested on: BALB/c mice; assay: Primary and secondary antibody response to human gamma globulins (HGG), serum ELISA (Example 4); assay type: in vivo; details: HGG 15 μg + AICA-riboside 10 mg i.p., boost day 25
Procedure: BALB/c mice received an intraperitoneal injection of HGG (15 μg) or HGG (15 μg)+AICA-riboside (10 mg). 16 days after immunization, mice were bled and serum levels of HGG-specific antibodies were determined by ELISA as described. On day 25, the two groups of mice received respectively a boost of HGG (15 μg) and of HGG (15 μg)+AICA-riboside (10 mg) intraperitoneally. Mice were bled 10 days after the boost and serum levels of HGG-specific antibodies were determined by ELISA as described previously (secondary response). The results are illustrated in FIG. 4.

[13] = tested on: mice; assay: Serum antibody response in mice to protein antigens mixed with AICA-riboside (general studies); assay type: in vivo
Source text: as §1

SMILES: CC[C@H]1/C=C/C=C/C[C@@H](C)[C@H](O)[C@@](C)(O)C(=O)[C@@H](C)[C@H](O)[C@@H](C)C(=O)[C@@H](C)[C@H](O)[C@@H](C)/C=C/C(=O)O[C@@H]2[C@H](C)[C@H](CC1)O[C@]1(CC[C@H](C)[C@H](C[C@@H](C)O)O1)[C@H]2C [oligomycin]
antigen-specific IgG antibodies [1]: increased levels of antigen-specific IgG antibodies; also recorded: increases antibody responses

SMILES: OC[C@H]1O[C@@H](n2cnc3c(S)ncnc32)[C@H](O)[C@@H]1O [6-MPR, 6-mercaptopurine riboside]
antigen-specific IgG antibodies [2]: increased levels of antigen-specific IgG antibodies

swelling of the lymph node draining the injection site [6]: does not induce the swelling
SMILES: NC(=O)c1ncn([C@@H]2O[C@H](CO)[C@@H](O)[C@H]2O)c1N [AICA-riboside, 5-aminoimidazole-4-carboxamide riboside]
antigen-specific IgM response ([3]; 10 mg i.p. with Ars-KLH 100 μg, vs antigen without adjuvant): unaffected
antigen-specific IgG antibodies ([3]; 10 mg i.p. with Ars-KLH 100 μg, vs antigen without adjuvant, primary (day 21) and secondary (8 days after boost) response): increased levels of antigen-specific IgG antibodies
immuno-stimulatory properties compared with Alum ([3]; AICA-riboside 10 mg vs Alum 50 μl, each with Ars-KLH 100 μg i.p.): comparable to the Alum adjuvant
antigen-specific response, day 120 ([3]; bled 120 days after first encounter with antigen, vs antigen alone): long-lasting increase in antigen-specific response
tolerability in humans [4]: well tolerated
adjuvant activity over dose range [5]: can act as an adjuvant over a wide range of doses
antigen-specific IgG antibodies [2]: increased levels of antigen-specific IgG antibodies
Ars specific antibodies concentrations ([2]; serum 19 days after immunization, Ars-KLH+saline control 0.04): 1.607 ± 0.521 µg/mL
GR-1-expressing inflammatory cell recruitment / cellular infiltrates [7]: minimal GR-1-expressing cells recruitment to sites distant from the injection site
tissue necrosis at injection site [7]: no tissue necrosis or abnormality
antigen-specific antibody responses in the absence of CD4-expressing T cells [8]: does not augment the antigen-specific antibody responses
secretion of cytokines ([9]; in response to bacterial mitogens, lectins or protein antigens): did not affect the secretion of cytokines
enhancing effect on in vitro response of murine lymphocytes ([9]; in vitro): no enhancing effect
adjuvant effect depending on time of injection [10]: only manifest when AICA-riboside is injected at the same moment with the antigen
antigen (NP)-specific antibody response ([11]; AICA-riboside 10 mg co-administered i.p. with NP-KLH 100 μg, vs antigen alone, bled Height days after immunization): increased antigen-specific antibody response
antigen (NP)-specific antibody response ([11]; AICA-riboside 10 mg i.p. alone, without antigen): does not lead to an increased, antigen-specific antibody response
antibody response to protein antigen HGG [12]: augments the antibody response
local inflammatory response following injection ([13]; injection into mice): no local inflammatory response was observed
boost of serum antibody response above unadjuvanted antigens ([13]; mixed in aqueous solutions with protein antigens, mice): five to ten folds
